Tested on: WBCs from whole blood
Assay: DLD assay: WBC biophysical profiling (size Dapp, deformability CDMdot) after in vitro activation of whole blood
Type: cell-based
Details: for WBC Dapp (average of L and L^-1 DLD assays): 2 hours incubation, undiluted whole blood at 37° C., 2.5 μL/min, n=5, healthy baseline 9.7±0.1 μm; for increase in WBC Dapp: 2 hours, versus healthy baseline
Method: The open reservoirs 102A, 102B and 102C facilitate easy sample loading, sample resuspension to prevent settling of cells and washing the reservoir to reuse the device. The required loaded volume per run is 10 μL and the reservoir can hold up to 25 μL of blood. As the fluid is withdrawn, the sample flows through a region comprising 21 DLD device segments sandwiched between two 1× phosphate-buffered saline (PBS) buffer streams (see Table 2). Each segment comprises an array of pillars and has a specific DLD critical cut-off size (Dc) determined by the empirical Equation (1): […]
where G is the regular spacing between pillars and θ is the gradient of the pillar array. This design is known as a chirped DLD array where each downstream segment has an increasing pillar row-shift gradient corresponding to an increasing Dc ranging from 6.0 to 16.0 μm in steps of 0.5 μm (see Methods). Immune cells flowing through the device 100 are deflected laterally only within DLD segments where cell sizes are larger than Dc; the cells therefore exit the device 100 at defined lateral positions depicted in the output region shown in FIG. 1A. The output of the sorting forms a spectrum in its size distribution (i.e., a biophysical parameter based on a distribution profile of the cells sorted by the array of pillars).
To evaluate the biophysical combinatorial immune profiling potential of DLD assay, a single biophysical size and deformability parameter is determined. For size parameters, the average Dapp for L and L^−1 assays was quantified at 2.5 μL/min, while a single cell deformability parameter (CDMdot) was emphasized by taking the product of the CDML and CDML^−1 measurements. Performing a product amplifies the deformability differences compared to CDML and CDML^−1 measurements individually (see FIG. 8). By combining the measurements of two DLD devices, a unique leukocyte biophysical fingerprint as a profiling tool to measure different states of WBC from whole blood in real-time was envisioned (see FIG. 1B).
Direct sample measurements enable the study of WBC biophysical profiles in different health states of an individual for healthy donors, patients admitted to the ED without signs of infection (ED Control), and patients with clear signs of infection and fulfilling at least two SIRS criteria (ED≥2 SIRS) (See Table 3). The second group are tests performed on blood, which have undergone external or in vitro test conditions to activate the WBCs. These include 5 ng/ml lipopolysaccharide (LPS), which mimics the bacteria coat that would trigger inflammation and phorbol 12-myristate 13-acetate (PMA) at 100 and 1000 nM, a known activator of WBCs. […]

## CCCCCCCCCCCCCC(=O)O[C@@H]1[C@@H](C)[C@@]2(O)[C@@H](C=C(CO)C[C@]3(O)C(=O)C(C)=C[C@@H]23)[C@@H]2C(C)(C)[C@]12OC(C)=O [PMA, phorbol 12-myristate 13-acetate]
PMA 100 nM
  WBC Dapp (average of L and L^-1 DLD assays): 12.6±0.8 μm
  increase in WBC Dapp: 30%
PMA 1000 nM
  WBC Dapp (average of L and L^-1 DLD assays): 13.9±0.7 μm
  increase in WBC Dapp: 43%

From patent US12643102B2, “Method of profiling a sample comprising a plurality of cells and a system for performing the same” (Massachusetts Institute of Technology, priority 2020, dated 2026)
